In this assay the test system is G3BP1 NFT2. In kind it is binding, human. The following applies: library DMS-BM; bait G3BP1 NFT2; prey CAPRIN1; AQMQGPYNFIQDSM(averaged): mean of the two overlapping peptides over the shared positions.
Take “AQMQGPYNFIQDSM(averaged) D12G (AQMQGPYNFIQGSM)”: the “DMS position-specific score (PSSM value) per amino-acid substitution, averaged” value amounted to 0.006593.

As to “AQMQGPYNFIQDSM(averaged) I10W (AQMQGPYNFWQDSM)”, the “DMS position-specific score (PSSM value) per amino-acid substitution, averaged” value amounted to 0.1749.

“AQMQGPYNFIQDSM(averaged) Q2L (ALMQGPYNFIQDSM)”: the “DMS position-specific score (PSSM value) per amino-acid substitution, averaged” value is given as 0.006039.

Take “AQMQGPYNFIQDSM(averaged) M14V (AQMQGPYNFIQDSV)”: the “DMS position-specific score (PSSM value) per amino-acid substitution, averaged” value was determined as 0.02285.

For “AQMQGPYNFIQDSM(averaged) D12M (AQMQGPYNFIQMSM)”, the “DMS position-specific score (PSSM value) per amino-acid substitution, averaged” value is on record as 0.01204.

Turning to AQMQGPYNFIQDSM(averaged) F9F, the “DMS position-specific score (PSSM value) per amino-acid substitution, averaged” value is 0.9484.

Take “AQMQGPYNFIQDSM(averaged) Q2A (AAMQGPYNFIQDSM)”: the “DMS position-specific score (PSSM value) per amino-acid substitution, averaged” value is recorded as 0.04422.

Take “AQMQGPYNFIQDSM(averaged) Q11T (AQMQGPYNFITDSM)”: the “DMS position-specific score (PSSM value) per amino-acid substitution, averaged” value was found to be 0.1081.

“AQMQGPYNFIQDSM(averaged) D12H (AQMQGPYNFIQHSM)”: the “DMS position-specific score (PSSM value) per amino-acid substitution, averaged” value is on record as 0.1155.

With “AQMQGPYNFIQDSM(averaged) Q4W (AQMWGPYNFIQDSM)”, the “DMS position-specific score (PSSM value) per amino-acid substitution, averaged” value was found to be 0.01813.

As to “AQMQGPYNFIQDSM(averaged) Q2R (ARMQGPYNFIQDSM)”, the “DMS position-specific score (PSSM value) per amino-acid substitution, averaged” value worked out at 0.001052.

As to “AQMQGPYNFIQDSM(averaged) M3T (AQTQGPYNFIQDSM)”, the “DMS position-specific score (PSSM value) per amino-acid substitution, averaged” value is listed as 0.05572.

With “AQMQGPYNFIQDSM(averaged) A1V (VQMQGPYNFIQDSM)”, the “DMS position-specific score (PSSM value) per amino-acid substitution, averaged” value stood at 0.05956.

For the substance “AQMQGPYNFIQDSM(averaged) S13I (AQMQGPYNFIQDIM)”, the “DMS position-specific score (PSSM value) per amino-acid substitution, averaged” value is reported as 0.01393.

In the case of “AQMQGPYNFIQDSM(averaged) M3K (AQKQGPYNFIQDSM)”, the “DMS position-specific score (PSSM value) per amino-acid substitution, averaged” value amounted to 0.006729.

In the case of “AQMQGPYNFIQDSM(averaged) Q4E (AQMEGPYNFIQDSM)”, the “DMS position-specific score (PSSM value) per amino-acid substitution, averaged” value came to 0.0003947.

As to “AQMQGPYNFIQDSM(averaged) Q4A (AQMAGPYNFIQDSM)”, the “DMS position-specific score (PSSM value) per amino-acid substitution, averaged” value is listed as 0.0506.

Regarding “AQMQGPYNFIQDSM(averaged) S13P (AQMQGPYNFIQDPM)”, the “DMS position-specific score (PSSM value) per amino-acid substitution, averaged” value was 0.

Turning to “AQMQGPYNFIQDSM(averaged) Y7Q (AQMQGPQNFIQDSM)”, the “DMS position-specific score (PSSM value) per amino-acid substitution, averaged” value came out at 0.001996.

With “AQMQGPYNFIQDSM(averaged) D12V (AQMQGPYNFIQVSM)”, the “DMS position-specific score (PSSM value) per amino-acid substitution, averaged” value is recorded as 0.005056.

“AQMQGPYNFIQDSM(averaged) F9Y (AQMQGPYNYIQDSM)”: the “DMS position-specific score (PSSM value) per amino-acid substitution, averaged” value is 0.002988.

“AQMQGPYNFIQDSM(averaged) Y7P (AQMQGPPNFIQDSM)”: the “DMS position-specific score (PSSM value) per amino-acid substitution, averaged” value is on record as 0.002813.

For the substance “AQMQGPYNFIQDSM(averaged) Q2M (AMMQGPYNFIQDSM)”, the “DMS position-specific score (PSSM value) per amino-acid substitution, averaged” value was 0.123.

For “AQMQGPYNFIQDSM(averaged) Q4I (AQMIGPYNFIQDSM)”, the “DMS position-specific score (PSSM value) per amino-acid substitution, averaged” value is listed as 0.04808.

For the substance “AQMQGPYNFIQDSM(averaged) N8W (AQMQGPYWFIQDSM)”, the “DMS position-specific score (PSSM value) per amino-acid substitution, averaged” value is given as 0.1126.

Turning to “AQMQGPYNFIQDSM(averaged) Q4T (AQMTGPYNFIQDSM)”, the “DMS position-specific score (PSSM value) per amino-acid substitution, averaged” value worked out at 0.0001371.

Turning to “AQMQGPYNFIQDSM(averaged) G5F (AQMQFPYNFIQDSM)”, the “DMS position-specific score (PSSM value) per amino-acid substitution, averaged” value came out at 0.2345.

In the case of “AQMQGPYNFIQDSM(averaged) Y7T (AQMQGPTNFIQDSM)”, the “DMS position-specific score (PSSM value) per amino-acid substitution, averaged” value came out at 0.

For the substance “AQMQGPYNFIQDSM(averaged) I10F (AQMQGPYNFFQDSM)”, the “DMS position-specific score (PSSM value) per amino-acid substitution, averaged” value came to 0.1045.

Consider “AQMQGPYNFIQDSM(averaged) A1G (GQMQGPYNFIQDSM)”, for which the “DMS position-specific score (PSSM value) per amino-acid substitution, averaged” value was determined as 0.01098.

Consider AQMQGPYNFIQDSM(averaged) S13S, for which the “DMS position-specific score (PSSM value) per amino-acid substitution, averaged” value stood at 0.5152.

With AQMQGPYNFIQDSM(averaged) Q4Q, the “DMS position-specific score (PSSM value) per amino-acid substitution, averaged” value is 0.2404.

Regarding “AQMQGPYNFIQDSM(averaged) Q11G (AQMQGPYNFIGDSM)”, the “DMS position-specific score (PSSM value) per amino-acid substitution, averaged” value is 0.1489.

In the case of “AQMQGPYNFIQDSM(averaged) G5N (AQMQNPYNFIQDSM)”, the “DMS position-specific score (PSSM value) per amino-acid substitution, averaged” value is 0.002472.

Turning to “AQMQGPYNFIQDSM(averaged) Q4K (AQMKGPYNFIQDSM)”, the “DMS position-specific score (PSSM value) per amino-acid substitution, averaged” value was determined as 4.484e-5.

Take “AQMQGPYNFIQDSM(averaged) P6S (AQMQGSYNFIQDSM)”: the “DMS position-specific score (PSSM value) per amino-acid substitution, averaged” value is listed as 0.00881.

In the case of “AQMQGPYNFIQDSM(averaged) M14Y (AQMQGPYNFIQDSY)”, the “DMS position-specific score (PSSM value) per amino-acid substitution, averaged” value is listed as 0.01132.

Consider “AQMQGPYNFIQDSM(averaged) Q2F (AFMQGPYNFIQDSM)”, for which the “DMS position-specific score (PSSM value) per amino-acid substitution, averaged” value was found to be 0.3525.

“AQMQGPYNFIQDSM(averaged) A1D (DQMQGPYNFIQDSM)”: the “DMS position-specific score (PSSM value) per amino-acid substitution, averaged” value is on record as 0.01051.

Turning to “AQMQGPYNFIQDSM(averaged) S13N (AQMQGPYNFIQDNM)”, the “DMS position-specific score (PSSM value) per amino-acid substitution, averaged” value was 0.02537.

For the substance “AQMQGPYNFIQDSM(averaged) I10Q (AQMQGPYNFQQDSM)”, the “DMS position-specific score (PSSM value) per amino-acid substitution, averaged” value is 0.01591.

Take “AQMQGPYNFIQDSM(averaged) D12A (AQMQGPYNFIQASM)”: the “DMS position-specific score (PSSM value) per amino-acid substitution, averaged” value was 0.09226.

On to “AQMQGPYNFIQDSM(averaged) G5L (AQMQLPYNFIQDSM)”, for which the “DMS position-specific score (PSSM value) per amino-acid substitution, averaged” value amounted to 0.1936.

As to AQMQGPYNFIQDSM(averaged) Y7Y, the “DMS position-specific score (PSSM value) per amino-acid substitution, averaged” value is on record as 0.5479.

On to “AQMQGPYNFIQDSM(averaged) M3V (AQVQGPYNFIQDSM)”, for which the “DMS position-specific score (PSSM value) per amino-acid substitution, averaged” value is listed as 0.3519.

Take “AQMQGPYNFIQDSM(averaged) Q4R (AQMRGPYNFIQDSM)”: the “DMS position-specific score (PSSM value) per amino-acid substitution, averaged” value worked out at 0.00079.

As for “AQMQGPYNFIQDSM(averaged) Y7D (AQMQGPDNFIQDSM)”, the “DMS position-specific score (PSSM value) per amino-acid substitution, averaged” value is reported as 0.

On to “AQMQGPYNFIQDSM(averaged) M14Q (AQMQGPYNFIQDSQ)”, for which the “DMS position-specific score (PSSM value) per amino-acid substitution, averaged” value came out at 0.06683.

Turning to “AQMQGPYNFIQDSM(averaged) G5P (AQMQPPYNFIQDSM)”, the “DMS position-specific score (PSSM value) per amino-acid substitution, averaged” value is reported as 0.02397.

Turning to “AQMQGPYNFIQDSM(averaged) M14K (AQMQGPYNFIQDSK)”, the “DMS position-specific score (PSSM value) per amino-acid substitution, averaged” value turned out to be 0.0006833.

In the case of “AQMQGPYNFIQDSM(averaged) Y7S (AQMQGPSNFIQDSM)”, the “DMS position-specific score (PSSM value) per amino-acid substitution, averaged” value is listed as 0.06469.

For the substance “AQMQGPYNFIQDSM(averaged) I10S (AQMQGPYNFSQDSM)”, the “DMS position-specific score (PSSM value) per amino-acid substitution, averaged” value worked out at 0.0008082.

In the case of “AQMQGPYNFIQDSM(averaged) P6N (AQMQGNYNFIQDSM)”, the “DMS position-specific score (PSSM value) per amino-acid substitution, averaged” value worked out at 0.03046.

As for “AQMQGPYNFIQDSM(averaged) Y7R (AQMQGPRNFIQDSM)”, the “DMS position-specific score (PSSM value) per amino-acid substitution, averaged” value stood at 0.

Consider “AQMQGPYNFIQDSM(averaged) Q2H (AHMQGPYNFIQDSM)”, for which the “DMS position-specific score (PSSM value) per amino-acid substitution, averaged” value turned out to be 0.02779.

Regarding “AQMQGPYNFIQDSM(averaged) M3D (AQDQGPYNFIQDSM)”, the “DMS position-specific score (PSSM value) per amino-acid substitution, averaged” value is 0.0976.

With “AQMQGPYNFIQDSM(averaged) N8M (AQMQGPYMFIQDSM)”, the “DMS position-specific score (PSSM value) per amino-acid substitution, averaged” value came to 0.01948.

As to “AQMQGPYNFIQDSM(averaged) N8I (AQMQGPYIFIQDSM)”, the “DMS position-specific score (PSSM value) per amino-acid substitution, averaged” value is 0.06952.

Consider “AQMQGPYNFIQDSM(averaged) M14R (AQMQGPYNFIQDSR)”, for which the “DMS position-specific score (PSSM value) per amino-acid substitution, averaged” value is 0.003652.

Take “AQMQGPYNFIQDSM(averaged) F9G (AQMQGPYNGIQDSM)”: the “DMS position-specific score (PSSM value) per amino-acid substitution, averaged” value was found to be 0.0001993.

On to “AQMQGPYNFIQDSM(averaged) M3A (AQAQGPYNFIQDSM)”, for which the “DMS position-specific score (PSSM value) per amino-acid substitution, averaged” value came out at 0.007318.

As for “AQMQGPYNFIQDSM(averaged) S13V (AQMQGPYNFIQDVM)”, the “DMS position-specific score (PSSM value) per amino-acid substitution, averaged” value came out at 0.1094.

“AQMQGPYNFIQDSM(averaged) G5H (AQMQHPYNFIQDSM)”: the “DMS position-specific score (PSSM value) per amino-acid substitution, averaged” value was 0.006873.

For AQMQGPYNFIQDSM(averaged) Q11Q, the “DMS position-specific score (PSSM value) per amino-acid substitution, averaged” value is listed as 0.3738.

Consider AQMQGPYNFIQDSM(averaged) I10I, for which the “DMS position-specific score (PSSM value) per amino-acid substitution, averaged” value was determined as 0.4804.

Regarding AQMQGPYNFIQDSM(averaged) M14M, the “DMS position-specific score (PSSM value) per amino-acid substitution, averaged” value came to 0.2883.

With “AQMQGPYNFIQDSM(averaged) M14H (AQMQGPYNFIQDSH)”, the “DMS position-specific score (PSSM value) per amino-acid substitution, averaged” value came out at 0.004419.

As to “AQMQGPYNFIQDSM(averaged) D12N (AQMQGPYNFIQNSM)”, the “DMS position-specific score (PSSM value) per amino-acid substitution, averaged” value was found to be 0.03064.

On to “AQMQGPYNFIQDSM(averaged) F9R (AQMQGPYNRIQDSM)”, for which the “DMS position-specific score (PSSM value) per amino-acid substitution, averaged” value was 0.

As to “AQMQGPYNFIQDSM(averaged) Y7E (AQMQGPENFIQDSM)”, the “DMS position-specific score (PSSM value) per amino-acid substitution, averaged” value is 0.0001172.

“AQMQGPYNFIQDSM(averaged) Q11P (AQMQGPYNFIPDSM)”: the “DMS position-specific score (PSSM value) per amino-acid substitution, averaged” value turned out to be 0.

Take “AQMQGPYNFIQDSM(averaged) D12P (AQMQGPYNFIQPSM)”: the “DMS position-specific score (PSSM value) per amino-acid substitution, averaged” value amounted to 0.216.

As for “AQMQGPYNFIQDSM(averaged) F9K (AQMQGPYNKIQDSM)”, the “DMS position-specific score (PSSM value) per amino-acid substitution, averaged” value is 0.

(Values after publication PMC12102759 (Protein Science : A Publication of the Protein Society, 2025).)
